US20080300288A1, “Alkenyldiarylmethanes, Fused Analogs And Syntheses Thereof” (PURDUE RESEARCH FOUNDATION, priority 2005, published 2008)
Read-outs that look alike come from different tables or passages of the source.

What was measured:
[1] = target: T1, recombinant HIV-1 RT enzyme (p66/51 dimer) (Human immunodeficiency virus type 1 group M subtype B, UniProt P04585); assay: RT inhibition assay, incorporation of [32P]GTP into poly(rC)/oligo(dG); assay type: biochemical
T1 construct: recombinant HIV-1 RT enzyme (p66/51 dimer)
Method: RT Inhibition Assay. Analysis of the effects of the compounds on recombinant HIV-1 RT enzyme (p66/51 dimer) was performed as previously described. See, Buckheit, R. W. J.; Fliakas-Boltz, V.; Decker, W. D.; Robertson, J. L.; Stup, T. L.; Pyle, C. […] Antiviral Res. 1995, 26, 117-132, the disclosure of which is incorporated herein by reference. Briefly, inhibition of purified recombinant reverse transcriptase enzyme was measured by the incorporation of [^32P]GTP into poly(rC)/oligo(dG) (rCdG) homopolymer template primers.

HIV-1RF = assay: MTS cytoprotection assay, HIV-1RF infection in CEM-SS cells; assay type: cell-based; conditions: Human immunodeficiency virus 1; HIV-1RF in CEM-SS cells; read-out: EC50 HIV-1RF (inhibition of cytopathicity)
Method: (§1) In Vitro Antiviral Assays. Evaluation of the antiviral activity of compounds against HIV-1RF infection in CEM-SS cells was performed using the MTS cytoprotection assay as previously described. See, Rice, W. G.; Bader, J. P. Discovery and in Vitro Development of AIDS Antiviral Drugs as Biopharmaceuticals. Adv. Pharmacol. (San Diego) 1995, 6, 389-438, the disclosure of which is incorporated herein by reference. […] See, Pauwels, R.; Balzarini, J.; Baba, M.; Snoeck, R.; Schols, D.; Herdewijn, P.; Desmyter, J.; De Clercq, E. Rapid and Automated Tetrazolium-based Colorimetric Assay for Detection of Anti-HIV Compounds. J. Virol. Methods 1988, 20, 309-321, the disclosure of which is incorporated herein by reference.

HIV-1 strain IIIB = assay: MTT assay, HIV-1 strain IIIB in MT-4 cells; assay type: cell-based; conditions: Human immunodeficiency virus 1, MT4; HIV-1IIIB in MT-4 cells; read-out: EC50 HIV-1IIIB (inhibition of cytopathicity)
CEM-SS cells = assay: Cytotoxicity in mock-infected CEM-SS cells; assay type: cell-based; conditions: read-out: CC50 CEM-SS Cells (50% cytotoxic concentration)
Method: as §1, with “[…].;” for “D.; Herdewijn, P.; Desmyter, J.;”, “[…].” for “Clercq, E.”

MT-4 cells = assay: Cytotoxicity in mock-infected MT-4 cells; assay type: cell-based; conditions: read-out: CC50 MT-4 Cells (50% cytotoxic concentration)
[2] = In vitro hydrolytic stability study in rat plasma; assay type: in vitro ADME; conditions: rat plasma in vitro, half-life
Method: NMR spectra were obtained at 300 MHz (^1H) and 75 MHz (^13C) in CDCl3 using CHCl3 as internal standard. Flash chromatography was performed with 230-400 mesh silica gel. […] Melting points are uncorrected. Unless otherwise stated, chemicals and solvents were of reagent grade and used as obtained from commercial sources without further purification. Tetrahydrofuran (THF) was freshly distilled from sodium/benzophenone ketyl radical prior to use. Dichloromethane was freshly distilled from calcium hydride prior to use. Lyophilized rat plasma (lot 052K7609) was obtained from Sigma Chemical Co., St. Louis, Mo. All yields given refer to isolated yields.
In vitro Hydrolytic Stability Study in Rat Plasma. […] See, Silvestri, M. A.; Nagarajan, M.; De Clercq, E.; Pannecouque, C.; Cushman, M. Design, Synthesis, Anti-HIV Activities, and Metabolic Stabilities of Alkenyldiarylmethane (ADAM) Non-nucleoside Reverse Transcriptase Inhibitors. J. Med. Chem. 2004, 47, 3149-3162, the disclosure of which is incorporated herein by reference.

[3] = Cytotoxicity in mock-infected CEM-SS cells; assay type: cell-based; conditions: human, uninfected (mock-infected) CEM-SS cells
Method: as §1, with “[…].;” for “D.; Herdewijn, P.; Desmyter, J.;”, “[…].” for “Clercq, E.”

[4] = Cytotoxicity in mock-infected MT-4 cells; assay type: cell-based; conditions: human, uninfected (mock-infected) MT-4 cells
HIV-2 strain (ROD) = assay: MTT assay, HIV-2 strain (ROD) in MT-4 cells; assay type: cell-based; conditions: Human immunodeficiency virus 2, MT4; HIV-2ROD in MT-4 cells; read-out: EC50 HIV-2-ROD (inhibition of cytopathicity)

COC(=O)CCCC=C(c1cc(C)c(OC)c(C(=O)OC)c1)c1cc(C)c(OC)c(C(=O)OC)c1 [Compound 1, Methyl 4′,4″-Dimethoxy-3′,3″-di(methoxycarbonyl)-5′,5″-dimethyl-6,6-diphenyl-5-hexenoate]
IC50 ([1]; poly(rC)•oligo(dG) as the template primer, read-out: IC50 (inhibitory activity vs HIV-1 reverse transcriptase)): 1 µM
EC50 (HIV-1RF): 0.25 µM
EC50 (HIV-1 strain IIIB): 1 µM
CC50 (CEM-SS cells): 6 µM
CC50 (MT-4 cells): 6.1 µM
Rat Plasma tp1/2 (min ± SD) [2]: 0.76 ± 0.04 min

COC(=O)CCC/C=C(\c1cccc(C#N)c1)c1cc(C)c2onc(OC)c2c1 [Compound 20, (E)-6-(3-Cyanophenyl)-6-(3-methoxy-7-methylbenzo[d]isoxazol-5-yl)-hex-5-enoic Acid Methyl Ester]
IC50 [1]: 5.7 µM
EC50 (HIV-1RF): > 100 µM
EC50 (HIV-1 strain IIIB): > 2.05 µM
CC50 [3]: 0.8 µM
CC50 [4]: 4.69 µM
Rat Plasma tp1/2 (min ± SD) [2]: 1.16 ± 0.08 min
EC50 (HIV-2 strain (ROD)): > 5.63 µM

COC(=O)CCC/C=C(/c1cc(C)c(OC)c(C(=O)OC)c1)c1cc(C)c2oc(=O)n(C)c2c1 [Compound 60, (Z)-5-[1-(3,7-Dimethyl-2-oxo-2,3-dihydro-benzoxazol-5-yl)-5-methoxycarbonyl-pent-1-enyl]-2-methoxy-3-methylbenzoic Acid Methyl Ester]
IC50 [1]: 0.16 µM
EC50 (HIV-1RF): 0.87 µM
EC50 (HIV-1 strain IIIB): 1.01 µM
CC50 [3]: 9.39 µM
CC50 [4]: 28.2 µM
Rat Plasma tp1/2 (min ± SD) [2]: 1.74 ± 0.00 min
EC50 (HIV-2 strain (ROD)): > 28.2 µM

COC(=O)CCC/C=C(/c1cc(Cl)c(OC)c(C(=O)OC)c1)c1cc(C)c2oc(=O)n(C)c2c1 [Compound 61, (E)-3-Chloro-5-[1-(3,7-dimethyl-2-oxo-2,3-dihydro-benzoxazol-5-yl)-5-methoxycarbonyl-pent-1-enyl]-2-methoxybenzoic Acid Methyl Ester]
IC50 [1]: 0.93 µM
EC50 (HIV-1RF): 0.53 µM
EC50 (HIV-1 strain IIIB): 0.25 µM
CC50 [3]: 9.47 µM
CC50 [4]: 29.7 µM
Rat Plasma tp1/2 (min ± SD) [2]: 0.19 ± 0.01 min
EC50 (HIV-2 strain (ROD)): > 29.7 µM

COC(=O)CCC/C=C(/c1ccc(OC)c(C(=O)OC)c1)c1cc(C)c2oc(=O)n(C)c2c1 [Compound 62, (Z)-5-[1-(3,7-Dimethyl-2-oxo-2,3-dihydrobenzoxazol-5-yl)-5-methoxycarbonyl-pent-1-enyl]-2-methoxy-benzoic Acid Methyl Ester]
IC50 [1]: 0.99 µM
EC50 (HIV-1RF): 3.08 µM
EC50 (HIV-1 strain IIIB): 4.15 µM
CC50 [3]: > 13.5 µM
CC50 [4]: 115 µM
Rat Plasma tp1/2 (min ± SD) [2]: 0.34 ± 0.15 min
melting point: 134 to 135 °C
EC50 (HIV-2 strain (ROD)): > 115 µM

COC(=O)CCC/C=C(\c1cc(F)cc(C(F)(F)F)c1)c1cc(C)c2oc(=O)n(C)c2c1 [Compound 63, (Z)-6-(3,7-Dimethyl-2-oxo-2,3-dihydrobenzoxazol-5-yl)-6-(3-fluoro-5-trifluoromethylphenyl)-hex-5-enoic Acid Methyl Ester]
IC50 [1]: > 100 µM
EC50 (HIV-1RF): > 100 µM
EC50 (HIV-1 strain IIIB): 4.36 µM
CC50 [3]: 15 µM
CC50 [4]: 51 µM
Rat Plasma tp1/2 (min ± SD) [2]: 3.06 ± 0.32 min
EC50 (HIV-2 strain (ROD)): > 60 µM

COC(=O)CCC/C=C(\c1cc(C)c(OC)c(C(=O)OC)c1)c1cc(C)c2oc(=O)n(C)c2c1 [Compound 64, (E)-5-[1-(3,7-Dimethyl-2-oxo-2,3-dihydro-benzoxazol-5-yl)-5-methoxycarbonyl-pent-1-enyl]-2-methoxy-3-methylbenzoic Acid Methyl Ester]
IC50 [1]: 0.02 µM
EC50 (HIV-1RF): 0.03 µM
EC50 (HIV-1 strain IIIB): 0.09 µM
CC50 (CEM-SS cells): 5.1 µM
CC50 (MT-4 cells): 16.9 µM
Rat Plasma tp1/2 (min ± SD) [2]: 1.30 ± 0.09 min
EC50 (HIV-2 strain (ROD)): > 16.9 µM

COC(=O)CCC/C=C(/c1cc(C)c2on(C)c(=O)c2c1)c1cc(C)c2oc(=O)n(C)c2c1 [Compound 65, (Z)-6-(2,7-Dimethyl-3-oxo-2,3-dihydro-benzo[d]isoxazol-5-yl)-6-(3,7-dimethyl-2-oxo-2,3-dihydro-benzoxazol-5-yl)-hex-5-enoic Acid Methyl Ester]
IC50 [1]: 49.2 µM
EC50 (HIV-1RF): 1.79 µM
EC50 (HIV-1 strain IIIB): 4.48 µM
CC50 [3]: 11.1 µM
CC50 [4]: 36.5 µM
Rat Plasma tp1/2 (min ± SD) [2]: 0.46 ± 0.03 min
EC50 (HIV-2 strain (ROD)): > 36.5 µM

COC(=O)CCCC=C(c1cc(C)c2oc(=O)n(C)c2c1)c1cc(C)c2oc(=O)n(C)c2c1 [Compound 66, 6,6-Bis-(3,7-dimethyl-2-oxo-2,3-dihydrobenzoxazol-5-yl)-hex-5-enoic Acid Methyl Ester]
IC50 [1]: 0.5 µM
EC50 (HIV-1RF): 0.62 µM
EC50 (HIV-1 strain IIIB): 0.22 µM
CC50 [3]: 31 µM
CC50 [4]: 32.5 µM
Rat Plasma tp1/2 (min ± SD) [2]: 0.59 ± 0.01 min
EC50 (HIV-2 strain (ROD)): > 32.5 µM
